The source of these data is US10934274B2, “Quinoline derivatives as TAM RTK inhibitors” (Qurient Co., Ltd., priority 2015, dated 2021).

One assay concerns the target T1, Axl (Homo sapiens, UniProt P30530).
T1 construct: purchased Life Technologies
T1 sequence (P30530 26-894): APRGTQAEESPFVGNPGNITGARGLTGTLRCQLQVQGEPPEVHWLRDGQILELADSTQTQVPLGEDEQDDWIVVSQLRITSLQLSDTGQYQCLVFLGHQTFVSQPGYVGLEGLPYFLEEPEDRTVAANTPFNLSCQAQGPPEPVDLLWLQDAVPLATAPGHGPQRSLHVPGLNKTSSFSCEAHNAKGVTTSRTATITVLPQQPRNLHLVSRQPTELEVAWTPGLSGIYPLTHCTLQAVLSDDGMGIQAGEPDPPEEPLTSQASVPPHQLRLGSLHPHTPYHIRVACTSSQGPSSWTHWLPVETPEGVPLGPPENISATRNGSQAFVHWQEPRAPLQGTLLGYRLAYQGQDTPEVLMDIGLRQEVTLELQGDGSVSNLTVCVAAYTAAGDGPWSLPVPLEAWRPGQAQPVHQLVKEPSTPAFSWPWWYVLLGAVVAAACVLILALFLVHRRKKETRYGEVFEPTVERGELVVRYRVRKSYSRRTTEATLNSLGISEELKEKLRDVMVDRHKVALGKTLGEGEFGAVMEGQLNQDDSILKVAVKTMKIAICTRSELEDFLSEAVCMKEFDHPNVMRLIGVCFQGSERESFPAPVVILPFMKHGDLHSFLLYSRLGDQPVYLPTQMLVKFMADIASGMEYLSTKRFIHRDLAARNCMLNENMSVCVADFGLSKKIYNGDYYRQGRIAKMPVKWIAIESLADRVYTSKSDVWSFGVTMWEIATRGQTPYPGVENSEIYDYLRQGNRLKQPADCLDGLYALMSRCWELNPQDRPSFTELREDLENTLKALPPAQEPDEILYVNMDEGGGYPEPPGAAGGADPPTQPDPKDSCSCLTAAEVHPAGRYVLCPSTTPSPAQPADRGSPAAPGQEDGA
Put plainly: LanthaScreen Eu kinase binding assay, Axl. Particulars: Tracer 236. Here is the method:
(§1) LanthaScreen® Eu Kinase Binding assays were conducted at Life Technologies using the manufacturer's specifications for each kinase indicated.
(§2) Briefly, the principle behind this assay is based upon the binding and displacement of an Alexa Fluor 647-labeled tracer to the kinase of interest. Binding of the tracer to the kinase is detected using an EU-labeled anti-tag antibody. Simultaneous binding of both the tracer and antibody to the kinase gives rise to a FRET-signal. Binding of an inhibitor to the kinase competes for binding with the tracer, resulting in a loss of FRET-signal.
(§3) Binding Assay Protocol for AXL, Mer, Tyro3 and Met
(§4) A given compound was diluted in DMSO to make a stock compound solution. The stock compound solution was serially diluted over eight steps in DMSO. Each diluted compound solution in DMSO was diluted in kinase buffer. Afterwards four kinds of working solution were prepared. First, Tracer-Working solution consists of Tracer 236 and Kinase Buffer. Second, Axl, Mer, Tyro3 or Met/anti-GST-AB-Working solution contained one of the kinases Axl, Mer, Tyro3, Met or anti-GST-AB (=anti glutathione-S-transferase antibody) in Kinase Buffer. Third, anti-GST-AB-Working solution was made with anti-GST-AB and Kinase Buffer. Last, in the DMSO-Working solution DMSO was added to Kinase Buffer to a final concentration to 3%. Each of the four kinds of working solutions were separately added to the assay plate and then incubated for 1 h at room temperature. After incubation, the assay plate was measured with respect to the FRET-Signal with the EnVision (Perkin Elmer) using the program LanthaHTRF-Assay. Data evaluation was done in the Quattro Workflow software.
(§5) Table 1 summarises the results obtained for AXL, Mer and Tyro3-kinases binding assays; table 2 summarises the results obtained for the Met kinase binding assay.
For orientation: TR-FRET usually uses a lanthanide donor and a delayed reading to cut background.

The target of the next assay is T2, Mer (Homo sapiens, UniProt Q12866).
T2 construct: purchased Life Technologies
T2 sequence (Q12866 21-999): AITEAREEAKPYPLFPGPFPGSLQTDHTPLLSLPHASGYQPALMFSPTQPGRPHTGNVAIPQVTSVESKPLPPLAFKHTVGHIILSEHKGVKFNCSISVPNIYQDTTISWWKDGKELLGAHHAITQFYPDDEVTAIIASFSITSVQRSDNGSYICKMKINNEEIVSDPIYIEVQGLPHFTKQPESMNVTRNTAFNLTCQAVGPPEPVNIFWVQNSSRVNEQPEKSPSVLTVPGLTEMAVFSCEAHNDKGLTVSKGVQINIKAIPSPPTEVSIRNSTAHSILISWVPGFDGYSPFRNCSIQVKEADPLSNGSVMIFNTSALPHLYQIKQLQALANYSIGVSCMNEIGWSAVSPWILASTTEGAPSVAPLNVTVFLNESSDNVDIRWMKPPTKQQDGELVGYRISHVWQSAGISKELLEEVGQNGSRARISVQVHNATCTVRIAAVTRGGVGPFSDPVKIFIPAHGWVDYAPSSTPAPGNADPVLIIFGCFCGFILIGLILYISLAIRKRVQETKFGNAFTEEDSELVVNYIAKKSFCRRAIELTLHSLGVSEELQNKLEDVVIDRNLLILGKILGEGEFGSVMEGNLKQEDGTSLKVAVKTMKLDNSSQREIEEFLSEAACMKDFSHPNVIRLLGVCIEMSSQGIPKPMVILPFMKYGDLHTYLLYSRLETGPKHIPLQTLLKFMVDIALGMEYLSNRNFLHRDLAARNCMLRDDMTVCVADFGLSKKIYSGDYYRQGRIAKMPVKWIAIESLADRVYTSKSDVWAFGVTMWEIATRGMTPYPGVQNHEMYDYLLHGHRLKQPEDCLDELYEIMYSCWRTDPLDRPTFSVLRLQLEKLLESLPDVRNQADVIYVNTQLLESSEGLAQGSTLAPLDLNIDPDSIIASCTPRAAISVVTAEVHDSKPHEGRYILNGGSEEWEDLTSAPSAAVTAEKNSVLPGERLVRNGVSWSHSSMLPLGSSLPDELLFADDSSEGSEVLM
Put plainly: LanthaScreen Eu kinase binding assay, Mer. Particulars: Tracer 236. How it is done:
as §1, §2, §3, §4, §5

The target of a further assay is T3, TYRO3 (Homo sapiens, UniProt Q06418).
T3 construct: purchased Life Technologies
T3 sequence (Q06418 41-890): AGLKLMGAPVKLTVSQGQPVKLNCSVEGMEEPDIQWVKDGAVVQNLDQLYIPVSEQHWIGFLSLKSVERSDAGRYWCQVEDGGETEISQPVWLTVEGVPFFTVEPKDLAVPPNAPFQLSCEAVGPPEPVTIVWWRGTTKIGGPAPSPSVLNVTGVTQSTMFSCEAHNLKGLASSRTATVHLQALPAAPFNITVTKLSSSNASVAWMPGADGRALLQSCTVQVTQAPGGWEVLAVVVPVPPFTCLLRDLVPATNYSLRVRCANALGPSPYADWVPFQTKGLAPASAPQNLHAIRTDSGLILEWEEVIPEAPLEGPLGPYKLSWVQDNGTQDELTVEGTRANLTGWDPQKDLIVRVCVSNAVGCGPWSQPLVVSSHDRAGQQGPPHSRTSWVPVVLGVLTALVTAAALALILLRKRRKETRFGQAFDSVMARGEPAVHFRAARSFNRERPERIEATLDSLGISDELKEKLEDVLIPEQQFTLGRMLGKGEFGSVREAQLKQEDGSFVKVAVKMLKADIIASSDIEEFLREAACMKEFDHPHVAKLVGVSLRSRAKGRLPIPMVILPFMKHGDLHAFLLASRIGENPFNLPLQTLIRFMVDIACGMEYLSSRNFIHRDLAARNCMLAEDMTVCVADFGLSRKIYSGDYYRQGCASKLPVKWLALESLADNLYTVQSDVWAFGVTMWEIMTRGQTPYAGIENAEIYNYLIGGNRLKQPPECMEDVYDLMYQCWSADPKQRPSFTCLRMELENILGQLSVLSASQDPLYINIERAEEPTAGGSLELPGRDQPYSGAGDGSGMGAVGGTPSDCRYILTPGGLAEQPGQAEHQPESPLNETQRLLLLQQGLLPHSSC
Kind of assay: LanthaScreen Eu kinase binding assay, TYRO3. Particulars: Tracer 236. Here is the method: as §1, §2, §3, §4, §5

A further assay deals with T4, Met (Homo sapiens, UniProt P08581).
T4 construct: purchased Life Technologies
Put plainly: LanthaScreen Eu kinase binding assay, Met. To be noted: Tracer 236, read-out: cMet kinase binding activity (Kd). How it is done:
as §1, §2, §3, §4, §5

pKd: −log10 of the molar value. Bounds are passed on as bounds.

T4 sequence (P08581 25-1390): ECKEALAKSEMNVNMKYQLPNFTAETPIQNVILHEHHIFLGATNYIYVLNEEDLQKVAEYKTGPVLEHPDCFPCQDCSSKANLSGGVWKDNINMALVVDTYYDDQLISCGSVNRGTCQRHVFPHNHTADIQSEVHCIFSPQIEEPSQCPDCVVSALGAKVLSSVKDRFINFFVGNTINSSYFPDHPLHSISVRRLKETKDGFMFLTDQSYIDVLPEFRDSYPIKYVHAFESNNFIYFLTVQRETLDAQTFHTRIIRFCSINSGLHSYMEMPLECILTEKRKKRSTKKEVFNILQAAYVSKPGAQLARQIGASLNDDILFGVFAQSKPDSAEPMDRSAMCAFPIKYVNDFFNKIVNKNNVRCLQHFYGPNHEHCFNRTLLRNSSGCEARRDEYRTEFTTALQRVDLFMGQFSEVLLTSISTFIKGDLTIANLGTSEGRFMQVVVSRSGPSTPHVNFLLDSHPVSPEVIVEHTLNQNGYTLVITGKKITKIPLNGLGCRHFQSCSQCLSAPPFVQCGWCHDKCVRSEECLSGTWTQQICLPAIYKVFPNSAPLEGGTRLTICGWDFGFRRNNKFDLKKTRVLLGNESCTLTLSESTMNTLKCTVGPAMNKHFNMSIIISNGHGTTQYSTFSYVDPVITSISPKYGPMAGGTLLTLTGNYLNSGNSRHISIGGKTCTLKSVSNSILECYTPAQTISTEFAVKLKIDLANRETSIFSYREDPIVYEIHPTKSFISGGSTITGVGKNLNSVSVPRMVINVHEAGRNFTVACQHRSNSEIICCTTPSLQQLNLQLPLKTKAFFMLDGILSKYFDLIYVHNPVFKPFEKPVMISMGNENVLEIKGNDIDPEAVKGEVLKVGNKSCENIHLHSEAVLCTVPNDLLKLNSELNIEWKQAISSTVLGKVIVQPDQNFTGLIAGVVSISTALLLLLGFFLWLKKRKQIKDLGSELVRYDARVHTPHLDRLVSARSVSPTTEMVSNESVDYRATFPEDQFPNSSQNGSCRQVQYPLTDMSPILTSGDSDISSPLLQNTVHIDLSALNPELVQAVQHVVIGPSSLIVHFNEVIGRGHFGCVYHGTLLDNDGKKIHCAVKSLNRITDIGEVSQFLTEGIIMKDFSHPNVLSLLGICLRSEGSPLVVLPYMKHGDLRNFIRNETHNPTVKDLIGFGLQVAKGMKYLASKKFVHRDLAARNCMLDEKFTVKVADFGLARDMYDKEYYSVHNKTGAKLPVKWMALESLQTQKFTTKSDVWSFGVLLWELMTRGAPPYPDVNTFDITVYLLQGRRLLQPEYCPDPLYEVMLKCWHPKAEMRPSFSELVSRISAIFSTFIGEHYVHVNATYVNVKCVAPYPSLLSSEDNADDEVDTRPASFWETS

By pKd is commonly meant the Kd on a negative log10 scale, so that one unit is a factor of ten. `CCOc1cn(C2CCN(C)CC2)nc1C(=O)Nc1ccc(Oc2ccnc3cc(OC)c(OC)cc23)cc1F` [Compound 222]: the pKd is 6.00 to 7.00 at Axl, 6.00 to 7.00 on Mer, not above 6.00 on TYRO3 and not above 6.00 on Met.
With `CCOc1cn(-c2cncc(C)n2)nc1C(=O)Nc1ccc(Oc2ccnc3cc(OC)c(OC)cc23)cn1` [Compound 157], the pKd on Axl was more than 7.00; at Mer it was more than 7.00; at TYRO3, not above 6.00; on Met it was more than 7.00.
Turning to `CCOc1cn(CCC(=O)NC)nc1C(=O)Nc1ccc(Oc2ccnc3cc(OC)c(OC)cc23)cn1` [Compound 67], the pKd is 6.00 to 7.00 on Axl, more than 7.00 at Mer, 6.00 to 7.00 at TYRO3 and 6.00 to 7.00 at Met.
On to `CCOc1cn(-c2cnc(N)s2)nc1C(=O)Nc1ccc(Oc2ccnc3cc(OC)c(OC)cc23)cn1` [Compound 139], for which the pKd at Axl is more than 7.00; on Mer, more than 7.00; at TYRO3, 6.00 to 7.00; on Met, more than 7.00.
With `CCC(C)Oc1cc2nccc(Oc3ccc(NC(=O)c4c(OCC(F)(F)F)cnn4-c4cnc(N)nc4)nc3)c2cc1OC` (stereo not drawn) [Compound 238], the pKd is not above 6.00 at Axl, 6.00 to 7.00 on Mer, not above 6.00 on TYRO3 and not above 6.00 on Met.
Consider `CCOc1cnn(CC2CCO2)c1C(=O)Nc1ccc(Oc2ccnc3cc(OC)c(OC)cc23)cn1` (stereo not drawn) [Compound 51], for which the pKd was 6.00 to 7.00 at Axl, 6.00 to 7.00 at Mer, not above 6.00 on TYRO3 and 6.00 to 7.00 on Met.
`CCOc1cn(CC(=O)O)nc1C(=O)Nc1ccc(Oc2ccnc3cc(OC)c(OC)cc23)cn1` [Compound 62]: the pKd is 6.00 to 7.00 on Axl, more than 7.00 at Mer, not above 6.00 on TYRO3 and not above 6.00 on Met.
With `CCOc1cn(-c2c(CN(C)C)ccnc2C)nc1C(=O)Nc1ccc(Oc2ccnc3cc(OC)c(OC)cc23)cn1` [Compound 131], the pKd on Axl was 6.00 to 7.00; on Mer, 6.00 to 7.00; on TYRO3 it was not above 6.00; on Met, 6.00 to 7.00.
On to `CCOc1cn(-c2cnc(N)nc2C)nc1C(=O)Nc1ccc(Oc2ccnc3cc(OC)c(OC)cc23)cn1` [Compound 150], for which the pKd on Axl, at Mer, on TYRO3 and at Met was more than 7.00 each time.
On to `CCOc1c(C(=O)Nc2ccc(Oc3ccnc4cc(OC)c(OC)cc34)cn2)nn(-c2cccnc2)c1C` [Compound 156], for which the pKd at Axl, at Mer, at TYRO3 and at Met was more than 7.00 throughout.
In the case of `CCOc1cnn(C2CCN(C)C2)c1C(=O)Nc1ccc(Oc2ccnc3cc(OC)c(OC)cc23)cn1` (stereo not drawn) [Compound 75], the pKd is 6.00 to 7.00 on Axl, 6.00 to 7.00 on Mer, not above 6.00 at TYRO3 and 6.00 to 7.00 on Met.
In the case of `CCOc1cn(-c2nccnc2F)nc1C(=O)Nc1ccc(Oc2ccnc3cc(OC)c(OC)cc23)cn1` [Compound 178], the pKd on Axl, on Mer, on TYRO3 and on Met was more than 7.00 throughout.
For `CCOc1cn(CC(N)=O)nc1C(=O)Nc1ccc(Oc2ccnc3cc(OC)c(OC)cc23)cn1` [Compound 35], the pKd on Axl is 6.00 to 7.00; at Mer, more than 7.00; at TYRO3, not above 6.00; at Met, not above 6.00.
For `CCOc1cn(-c2ccc(F)cc2C)nc1C(=O)Nc1ccc(Oc2ccnc3cc(OC)c(OC)cc23)cc1CO` [Compound 119], the pKd on Axl, on Mer, at TYRO3 and at Met was 6.00 to 7.00 throughout.
As to `CCOc1cn(-c2cncc(C#N)n2)nc1C(=O)Nc1ccc(Oc2ccnc3cc(OC)c(OC)cc23)cn1` [Compound 158], the pKd at Axl is 6.00 to 7.00; on Mer it was not above 6.00; on TYRO3, not above 6.00; at Met, not above 6.00.
As to `CCOc1cn(-c2ccc(F)cc2C)nc1C(=O)Nc1csc(Oc2ccnc3cc(OC)c(OC)cc23)n1` [Compound 122], the pKd at Axl, at Mer, on TYRO3 and on Met was not above 6.00 in each case.
In the case of `CCOc1cnn(-c2ccc(C(C)(C)C)cc2)c1C(=O)Nc1ccc(Oc2ccnc3cc(OC)c(OC)cc23)cn1` [Compound 123], the pKd is 6.00 to 7.00 on Axl, 6.00 to 7.00 at Mer, not above 6.00 on TYRO3 and 6.00 to 7.00 at Met.
For `CCOc1cn(CC2CCNCC2)nc1C(=O)Nc1ccc(Oc2ccnc3cc(OC)c(OC)cc23)cc1F` [Compound 218], the pKd on Axl, at Mer, on TYRO3 and at Met was 6.00 to 7.00 each time.
